Source: patent US20180000089A1, “NOVEL MICROBIOCIDES” (Syngenta Participations AG, priority 2015, published 2018)

How the values were obtained:
Pythium ultimum = Pythium ultimum / liquid culture (seedling damping off); format: cell-based; conditions: Globisporangium ultimum, potato dextrose broth, 24° C., inhibition of growth determined photometrically 2-3 days after application, read-out: disease control
Protocol: 8 Pythium ultimum/Liquid Culture (Seedling Damping Off) Mycelia fragments and oospores of a newly grown liquid culture of the fungus were directly mixed into nutrient broth (potato dextrose broth). After placing a DMSO solution of test compound into a 96-well format microtiter plate at an application rate of 200 ppm, the nutrient broth containing the fungal mycelia/spore mixture was added. The test plates were incubated at 24° C. and the inhibition of growth was determined photometrically 2-3 days after application.

[1] = test system: Botryotinia fuckeliana (Botrytis cinerea); test: Botryotinia fuckeliana (Botrytis cinerea) / liquid culture (gray mould); format: cell-based; conditions: Vogels broth, 24° C., inhibition of growth determined photometrically 3-4 days after application, read-out: disease control
Protocol: (§1) 9 Botryotinia fuckeliana (Botrytis cinerea)/liquid culture (Gray mould): Conidia of the fungus from cryogenic storage were directly mixed into nutrient broth (Vogels broth). After placing a DMSO solution of test compound into a 96-well microtiter plate at an application rate of 200 ppm, the nutrient broth containing the fungal spores was added. The test plates were incubated at 24° C. and the inhibition of growth was determined photometrically 3-4 days after application.

[2] = test system: Mycosphaerella arachidis (Cercospora arachidicola); test: Mycosphaerella arachidis (Cercospora arachidicola) / liquid culture (early leaf spot); format: cell-based; conditions: PDB, 24° C., inhibition of growth determined photometrically 4-5 days after application, read-out: disease control
Protocol: as §1, with “11 Mycosphaerella arachidis (Cercospora arachidicola)/Liquid Culture (Early Leaf Spot):” for “9 Botryotinia fuckeliana (Botrytis cinerea)/liquid culture (Gray mould):”, “(PDB potato dextrose” for “(Vogels”, “4-5” for “3-4”

[3] = test system: Mycosphaerella graminicola (Septoria tritici); test: Mycosphaerella graminicola (Septoria tritici) / liquid culture (Septoria blotch); format: cell-based; conditions: Zymoseptoria tritici, PDB, 24° C., inhibition of growth determined photometrically 4-5 days after application, read-out: disease control
Protocol: as §1, with “12 Mycosphaerella graminicola (Septoria tritici)/Liquid Culture (Septoria Blotch):” for “9 Botryotinia fuckeliana (Botrytis cinerea)/liquid culture (Gray mould):”, “(PDB potato dextrose” for “(Vogels”, “4-5” for “3-4”

Fusarium culmorum = test: microbe, parasite or virus in culture; format: cell-based; conditions: read-out: disease control
Sclerotinia sclerotiorum = Sclerotinia sclerotiorum / liquid culture (cottony rot); format: cell-based; conditions: PDB, 24° C., inhibition of growth determined visually 3-4 days after application, read-out: disease control
Protocol: 17 Sclerotinia sclerotiorum/liquid culture (cottony rot): Mycelia fragments of a newly grown liquid culture of the fungus were directly mixed into nutrient broth (PDB potato dextrose broth). After placing a (DMSO) solution of the test compounds into a microtiter plate (96-well format) the nutrient broth containing the fungal material was added. The test plates were incubated at 24° C. and the inhibition of growth was determined visually 3-4 days after application.

Pyrenophora teres = Pyrenophora teres / barley / leaf disc preventative (net blotch); format: in vivo; conditions: 200 ppm; barley leaf segments cv Hasso, inoculated two days after application; assessed 5-7 days after application vs untreated
Protocol: 5 Pyrenophora teres/Barley/Leaf Disc Preventative (Net Blotch): Barley leaf segments cv Hasso were placed on agar in a 24-well plate and sprayed with formulated test compound diluted in water at an application rate of 200 ppm. The leaf segments were inoculated with a spore suspension of the fungus two days after application of the test solution. The inoculated leaf segments were incubated at 20° C. and 65% relative humidity under a light regime of 12/12 h (light/dark) in a climate cabinet and the activity of a compound was assessed as disease control compared to untreated when an appropriate level of disease damage appears in untreated check leaf segments (5-7 days after application).

Plasmopara viticola = test: whole plant or invertebrate; format: in vivo; conditions: foliar, read-out: disease control
Gaeumannomyces Graminis = test: Gaeumannomyces graminis / liquid culture (take-all of cereals); format: cell-based; conditions: PDB, 24° C., inhibition of growth determined photometrically 4-5 days after application, read-out: disease control
Protocol: 13 Gaeumannomyces Graminis/Liquid Culture (Take-all of Cereals): Mycelial fragments of the fungus from cryogenic storage were directly mixed into nutrient broth (PDB potato dextrose broth). […] The test plates were incubated at 24° C. and the inhibition of growth was determined photometrically 4-5 days after application.

[4] = test system: Glomerella lagenarium (Colletotrichum Lagenarium); test: Glomerella lagenarium (Colletotrichum lagenarium) / liquid culture (anthracnose); format: cell-based; conditions: Colletotrichum orbiculare, PDB, 24° C., inhibition of growth measured photometrically 3-4 days after application, read-out: disease control
Protocol: as §1, with “10 Glomerella lagenarium (Colletotrichum Lagenarium)/Liquid Culture (Anthracnose):” for “9 Botryotinia fuckeliana (Botrytis cinerea)/liquid culture (Gray mould):”, “(PDB potato dextrose” for “(Vogels”, “measured” for “determined”

[5] = test system: Monographella nivalis (Microdochium nivale); test: Monographella nivalis (Microdochium nivale) / liquid culture (foot rot cereals); format: cell-based; conditions: PDB, 24° C., inhibition of growth determined photometrically 4-5 days after application, read-out: disease control
Protocol: as §1, with “14 Monographella nivalis (Microdochium nivale)/liquid” for “9 Botryotinia fuckeliana (Botrytis cinerea)/liquid”, “(foot rot cereals):” for “(Gray mould):”, “(PDB potato dextrose” for “(Vogels”, “4-5” for “3-4”

[6] = test system: Magnaporthe grisea (Pyricularia oryzae); format: in vivo; conditions: 200 ppm; rice leaf segments cv. Ballila, inoculated 2 days after application; assessed 5-7 days after application vs untreated
[7] = test system: Thanatephorus cucumeris (Rhizoctonia solani); test: Thanatephorus cucumeris (Rhizoctonia solani) / liquid culture (foot rot, damping-off); format: cell-based; conditions: PDB, 24° C., inhibition of growth determined photometrically 3-4 days after application, read-out: disease control
Protocol: 16 Thanatephorus cucumeris (Rhizoctonia solani)/liquid culture (foot rot, damping-off): Mycelia fragments of a newly grown liquid culture of the fungus were directly mixed into nutrient broth (PDB potato dextrose broth). After placing a DMSO solution of the test compounds into a 96-well microtiter plate at an application rate of 200 ppm, the nutrient broth containing the fungal material was added. The test plates were incubated at 24° C. and the inhibition of growth was determined photometrically 3-4 days after application.

Alternaria solani = Alternaria solani / tomato / leaf disc (early blight); format: in vivo; conditions: 200 ppm; tomato leaf disks cv. Baby, inoculated 2 days after application; assessed 5-7 days after application vs untreated
Protocol: 6 Alternaria solani/Tomato/Leaf Disc (Early Blight) Tomato leaf disks cultivated variety (cv.) Baby were placed on agar in multiwell plates (24-well format) and sprayed with the formulated test compound diluted in water at an application rate of 200 ppm. The leaf disks were inoculated with a spore suspension of the fungus 2 days after application. The inoculated leaf disks were incubated at 23° C./21° C.

SMILES	melting point [°C]	inhibition of growth at 200 ppm (Pythium ultimum) [%]	inhibition of growth at 200 ppm [1] [%]	inhibition of growth at 200 ppm [2] [%]	inhibition of growth at 200 ppm [3] [%]	inhibition of growth at 200 ppm (Fusarium culmorum) [%]	inhibition of growth at 200 ppm (Sclerotinia sclerotiorum) [%]	disease control (Pyrenophora teres)	pest or weed control at 200 ppm (Plasmopara viticola) [%]	inhibition of growth at 200 ppm (Gaeumannomyces Graminis) [%]	inhibition of growth at 200 ppm [4] [%]	inhibition of growth at 200 ppm [5] [%]	disease control [6]	inhibition of growth at 200 ppm [7] [%]	disease control (Alternaria solani)
OB1OCc2cc(F)c(-c3ccc(F)cc3)cc21 [Compound 10]	161 to 163	≥ 80	≥ 80	≥ 80	≥ 80	≥ 80	≥ 80	at least 80%	≥ 80	≥ 80	≥ 80	≥ 80	–	–	–
OB1OCc2cc(F)c(-c3ccccc3)cc21 [Compound 9]	142 to 152	≥ 80	≥ 80	≥ 80	≥ 80	≥ 80	≥ 80	–	≥ 80	≥ 80	≥ 80	≥ 80	at least 80%	–	–
COc1ccc(Cl)cc1-c1cc2c(cc1Cl)COB2O [Compound 31]	–	≥ 80	≥ 80	≥ 80	≥ 80	≥ 80	≥ 80	–	–	–	≥ 80	≥ 80	–	≥ 80	–
OB1OCc2cc(Cl)c(-c3ccccc3)cc21 [Compound 3, 5-chloro-1-hydroxy-6-phenyl-3H-2,1-benzoxaborole]	135 to 145	≥ 80	≥ 80	≥ 80	≥ 80	≥ 80	≥ 80	–	≥ 80	≥ 80	≥ 80	≥ 80	–	≥ 80	–
OB1OCc2cc(F)c(-c3ccc(Cl)cc3Cl)cc21 [Compound 28]	–	–	≥ 80	≥ 80	≥ 80	–	≥ 80	–	–	≥ 80	–	–	–	≥ 80	–
OB1OCc2ccc(-c3ccccc3)cc21 [Compound 1, 1-hydroxy-6-phenyl-3H-2,1-benzoxaborole]	140 to 150	≥ 80	≥ 80	≥ 80	≥ 80	–	≥ 80	–	≥ 80	≥ 80	≥ 80	≥ 80	–	–	at least 80%
COc1ccccc1-c1cc2c(cc1Cl)COB2O [Compound 7, 5-chloro-1-hydroxy-6-(2-methoxyphenyl)-3H-2,1-benzoxaborole]	90 to 105	≥ 80	–	–	≥ 80	≥ 80	–	–	≥ 80	–	≥ 80	–	–	≥ 80	–
